Where two headings read alike, the source gives them in different places.
Target: truncated form of human NaV 1.8 with full channel activity (Homo sapiens, UniProt Q9Y5Y9)
Experiment: E-VIPR Assay Method A for detecting and measuring Nav inhibition (HEK cells, membrane potential FRET dyes, electrical stimulation)
Format: cell-based
Conditions: HEK cells expressing human NaV 1.8, HS (human serum) in compound loading buffer, 11 point dose response, top dose 3 μM
In short: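 Read-out: FRET membrane-potential dye ratio (460/580 nm) before and during E-VIPR field stimulation at 10 Hz for 10 s, expressed as % activity between DMSO and positive controls. Cells: HEK with truncated human NaV1.8; compound preincubated 30 min at room temp, final DMSO 0.625%.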

[1] = Table 20A, read-out: Nav 1.8 MedChem Optical Assay EVIPR Assay Method A HS IC50

Sequence of truncated form of human NaV 1.8 with full channel activity (Q9Y5Y9 126-1722 limits assumed): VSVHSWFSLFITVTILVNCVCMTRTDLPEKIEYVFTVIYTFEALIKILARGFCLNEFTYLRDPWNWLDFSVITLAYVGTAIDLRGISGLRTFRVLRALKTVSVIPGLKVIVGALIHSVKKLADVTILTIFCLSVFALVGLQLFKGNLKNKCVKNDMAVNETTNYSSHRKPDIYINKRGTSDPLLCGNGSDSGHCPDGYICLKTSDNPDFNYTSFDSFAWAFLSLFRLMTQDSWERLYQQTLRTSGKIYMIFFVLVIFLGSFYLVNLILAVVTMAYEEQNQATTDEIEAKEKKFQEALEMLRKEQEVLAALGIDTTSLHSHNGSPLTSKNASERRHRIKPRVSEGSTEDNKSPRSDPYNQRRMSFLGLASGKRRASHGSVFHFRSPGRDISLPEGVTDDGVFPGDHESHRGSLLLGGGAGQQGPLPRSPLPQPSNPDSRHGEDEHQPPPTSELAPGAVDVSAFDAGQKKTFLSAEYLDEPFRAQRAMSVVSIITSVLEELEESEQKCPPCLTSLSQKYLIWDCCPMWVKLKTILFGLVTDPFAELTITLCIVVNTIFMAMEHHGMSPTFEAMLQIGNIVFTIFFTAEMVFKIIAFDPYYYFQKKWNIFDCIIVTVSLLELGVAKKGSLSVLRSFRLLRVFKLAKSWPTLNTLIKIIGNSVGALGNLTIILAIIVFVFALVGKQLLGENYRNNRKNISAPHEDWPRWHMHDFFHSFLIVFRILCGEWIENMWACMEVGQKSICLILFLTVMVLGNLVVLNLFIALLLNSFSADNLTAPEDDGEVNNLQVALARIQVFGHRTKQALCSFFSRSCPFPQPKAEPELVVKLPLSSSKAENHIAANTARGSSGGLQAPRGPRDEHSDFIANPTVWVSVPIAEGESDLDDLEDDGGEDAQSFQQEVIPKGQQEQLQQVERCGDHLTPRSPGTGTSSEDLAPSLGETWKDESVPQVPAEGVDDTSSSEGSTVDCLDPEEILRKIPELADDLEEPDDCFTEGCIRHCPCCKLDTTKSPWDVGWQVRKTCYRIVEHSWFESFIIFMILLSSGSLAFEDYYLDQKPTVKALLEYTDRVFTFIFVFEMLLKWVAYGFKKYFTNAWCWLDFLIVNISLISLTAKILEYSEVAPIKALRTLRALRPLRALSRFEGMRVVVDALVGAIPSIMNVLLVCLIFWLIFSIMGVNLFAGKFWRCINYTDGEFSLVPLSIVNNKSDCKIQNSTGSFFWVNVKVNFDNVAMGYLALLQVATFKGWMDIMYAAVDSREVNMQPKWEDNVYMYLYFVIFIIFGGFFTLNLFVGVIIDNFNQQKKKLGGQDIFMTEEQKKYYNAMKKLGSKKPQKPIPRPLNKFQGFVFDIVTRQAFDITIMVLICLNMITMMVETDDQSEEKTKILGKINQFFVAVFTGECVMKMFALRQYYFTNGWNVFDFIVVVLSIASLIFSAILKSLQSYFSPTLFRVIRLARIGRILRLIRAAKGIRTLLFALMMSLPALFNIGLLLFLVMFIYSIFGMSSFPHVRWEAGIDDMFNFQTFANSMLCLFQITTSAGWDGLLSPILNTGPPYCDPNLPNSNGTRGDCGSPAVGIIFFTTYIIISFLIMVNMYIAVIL

Row | IC50 [1] [nM] | IC50 (Table 20, read-out: Nav 1.8 MedChem Optical Assay EVIPR Assay Method A HS IC50) [nM] | SMILES
1 | 9 | – | [2H]c1cc(F)c(C(N)=O)cc1NC(=O)c1c(Oc2c([2H])cc(OC(F)(F)F)c([2H])c2[2H])ccc(C(F)(F)F)c1F [Compound 213, N-(5-Carbamoyl-2-deuterio-4-fluoro-phenyl)-2-fluoro-6-[2,3,6-trideuterio-4-(trifluoromethoxy)phenoxy]-3-(trifluoromethyl)benzamide]
2 | 460 | – | NC(=O)c1cc(NC(=O)c2c(Cl)cc(Cl)cc2Oc2ccc(F)cc2)ccn1 [Compound 177, 4-[[2,4-Dichloro-6-(4-fluorophenoxy)benzoyl]amino]pyridine-2-carboxamide]
3 | 73 | – | Cc1cnc(C(N)=O)cc1NC(=O)c1c(Oc2ccc(OC(F)(F)F)cc2)ccc(Cl)c1F [Compound 244, 4-[[3-chloro-2-fluoro-6-[4-(trifluoromethoxy)phenoxy]benzoyl]amino]-5-methyl-pyridine-2-carboxamide]
4 | 260 | – | COc1ccc(Oc2ccc(C(F)(F)F)c(F)c2C(=O)Nc2ccc(F)c(C(N)=O)c2)cn1 [Compound 56, N-(3-carbamoyl-4-fluoro-phenyl)-2-fluoro-6-[(6-methoxy-3-pyridyl)oxy]-3-(trifluoromethyl)benzamide]
5 | 40 | – | COc1cc(OC(F)(F)F)ccc1Oc1cc(C2CC2)ncc1C(=O)Nc1ccc(F)c(C(N)=O)c1 [Compound 43, N-(3-Carbamoyl-4-fluoro-phenyl)-6-cyclopropyl-4-[2-methoxy-4-(trifluoromethoxy)phenoxy]pyridine-3-carboxamide]
6 | 210 | – | NC(=O)c1cc(NC(=O)c2c(Oc3ccc(OC(F)(F)F)cc3)cccc2C(F)(F)F)ccc1F [Compound 39, N-(3-Carbamoyl-4-fluoro-phenyl)-2-[4-(trifluoromethoxy)phenoxy]-6-(trifluoromethyl)benzamide]
7 | 410 | – | NC(=O)c1cc(NC(=O)c2c(Oc3ccc(OC(F)(F)F)cc3)cc(C(F)(F)F)cc2C(F)(F)F)ccn1 [Compound 160, 4-[[2-[4-(Trifluoromethoxy)phenoxy]-4,6-bis(trifluoromethyl)benzoyl]amino]pyridine-2-carboxamide]
8 | 15 | – | CNC(=O)c1cccc(NC(=O)c2c(Oc3ccc(OC(F)(F)F)cc3OC)ccc(C(F)(F)F)c2F)c1 [Compound 98, 2-fluoro-6-[2-methoxy-4-(trifluoromethoxy)phenoxy]-N-[3-(methylcarbamoyl)phenyl]-3-(trifluoromethyl)benzamide]
9 | 23 | – | NC(=O)c1cc(NC(=O)c2c(Oc3ccc(OC(F)(F)F)cc3)ccc(C(F)(F)F)c2F)ccn1 [Compound 48, 4-[[2-fluoro-6-[4-(trifluoromethoxy)phenoxy]-3-(trifluoromethyl)benzoyl]amino]pyridine-2-carboxamide]
10 | 50 | – | COc1cc(OC(F)(F)F)ccc1Oc1cc(C2CC2(F)F)ncc1C(=O)Nc1ccc(F)c(C(N)=O)c1 (stereo not drawn) [Compound 108, N-(3-Carbamoyl-4-fluoro-phenyl)-6-(2,2-difluorocyclopropyl)-4-[2-methoxy-4-(trifluoromethoxy)phenoxy]pyridine-3-carboxamide]
11 | 38 | – | NC(=O)c1cc(NC(=O)c2c(Oc3ccc(OC(F)(F)F)cc3F)ccc(C(F)(F)F)c2F)ccn1 [Compound 90, 4-[[2-fluoro-6-[2-fluoro-4-(trifluoromethoxy)phenoxy]-3-(trifluoromethyl)benzoyl]amino]pyridine-2-carboxamide]
12 | 43 | – | COc1cc(OC(F)(F)F)ccc1Oc1cc([C@@H]2C[C@H]2C)ncc1C(=O)Nc1ccnc(C(N)=O)c1 (single isomer, unassigned) [Compound 112]
13 | 11 | – | [2H]C([2H])([2H])Oc1c(Oc2ccc(Cl)c(F)c2C(=O)Nc2cc(C(N)=O)ncc2C)ccc(OC(F)(F)F)c1F [Compound 240, 4-[[3-chloro-2-fluoro-6-[3-fluoro-2-(trideuteriomethoxy)-4-(trifluoromethoxy)phenoxy]benzoyl]amino]-5-methyl-pyridine-2-carboxamide]
14 | 21 | – | Cc1cnc(C(N)=O)cc1NC(=O)c1c(Oc2ccc(OC(F)(F)F)c(F)c2)ccc(C(F)(F)F)c1F [Compound 246, 4-[[2-fluoro-6-[3-fluoro-4-(trifluoromethoxy)phenoxy]-3-(trifluoromethyl)benzoyl]amino]-5-methyl-pyridine-2-carboxamide]
15 | 45 | – | COc1cc(OC(F)(F)F)ccc1Oc1ccc(C(F)(F)F)c(F)c1C(=O)Nc1ccc(F)c(C(=O)N(C)C)c1 [Compound 95, N-[3-(dimethylcarbamoyl)-4-fluoro-phenyl]-2-fluoro-6-[2-methoxy-4-(trifluoromethoxy)phenoxy]-3-(trifluoromethyl)benzamide]
16 | 48 | – | NC(=O)c1cc(NC(=O)c2c(Oc3ccc(OC(F)(F)F)cc3)ccc(C(F)F)c2F)ccn1 [Compound 83, 4-[[3-(Difluoromethyl)-2-fluoro-6-[4-(trifluoromethoxy)phenoxy]benzoyl]amino]pyridine-2-carboxamide]
17 | 9 | – | [2H]C([2H])([2H])Oc1c(Oc2ccc(OC(F)(F)F)c(F)c2C(=O)Nc2cc(C(N)=O)ncc2C)ccc(OC(F)(F)F)c1F [Compound 231, 4-[[2-Fluoro-6-[3-fluoro-2-(trideuteriomethoxy)-4-(trifluoromethoxy)phenoxy]-3-(trifluoromethoxy)benzoyl]amino]-5-methyl-pyridine-2-carboxamide]
18 | 290 | – | COc1cc(OC(F)(F)F)ccc1Oc1ccc(Cl)cc1C(=O)Nc1cc(C(N)=O)ncc1C [Compound 150, 4-[[5-Chloro-2-[2-methoxy-4-(trifluoromethoxy)phenoxy]benzoyl]amino]-5-methyl-pyridine-2-carboxamide]
19 | 55 | – | NC(=O)c1cc(NC(=O)c2c(Oc3ccc(OC(F)(F)F)cc3)ccc(C(F)(F)F)c2F)cc[n+]1[O-] [Compound 110, 4-[[2-Fluoro-6-[4-(trifluoromethoxy)phenoxy]-3-(trifluoromethyl)benzoyl]amino]-1-oxido-pyridin-1-ium-2-carboxamide]
20 | – | 6 | NC(=O)c1cc(NC(=O)c2c(Oc3ccc(OC(F)(F)F)c(Cl)c3)ccc(C(F)(F)F)c2F)ccc1F [Compound 14, N-(3-carbamoyl-4-fluoro-phenyl)-6-[3-chloro-4-(trifluoromethoxy)phenoxy]-2-fluoro-3-(trifluoromethyl)benzamide]
21 | 18 | – | COc1cc(OC(F)(F)F)ccc1Oc1ccc(F)c(F)c1C(=O)Nc1ccc(F)c(C(N)=O)c1 [Compound 55, N-(3-Carbamoyl-4-fluoro-phenyl)-2,3-difluoro-6-[2-methoxy-4-(trifluoromethoxy)phenoxy]benzamide]
22 | 215 | – | NC(=O)c1cc(NC(=O)c2cnc(C3CC3)cc2Oc2ccc(OC(F)(F)F)c(Cl)c2)ccc1F [Compound 36, N-(3-Carbamoyl-4-fluoro-phenyl)-4-[3-chloro-4-(trifluoromethoxy)phenoxy]-6-cyclopropyl-pyridine-3-carboxamide]
23 | 520 | – | CC(C)c1cc(Oc2ccc(OC(F)(F)F)c(F)c2)c(C(=O)Nc2ccc(F)c(C(N)=O)c2)cn1 [Compound 33, N-(3-Carbamoyl-4-fluoro-phenyl)-4-[3-fluoro-4-(trifluoromethoxy)phenoxy]-6-isopropyl-pyridine-3-carboxamide]
24 | 150 | – | [2H]C([2H])([2H])Oc1cc(OC(F)(F)F)ccc1Oc1ccc(OC(F)(F)F)cc1C(=O)Nc1ccnc(C(N)=O)c1 [Compound 158, 4-[[2-[2-(Trideuteriomethoxy)-4-(trifluoromethoxy)phenoxy]-5-(trifluoromethoxy)benzoyl]amino]pyridine-2-carboxamide]
